Earlier results in US12447174B2, “Microdaily EMF protects against oxidative and inflammatory damage, and acute and late adverse effects of EMF radiation” (priority 2021, dated 2025).
Entries after “also recorded” stand apart in the source; their conditions may differ. Each block holds one molecule with its values, some of them ahead of it.

What was measured:
[1] = test system: microglia cells in culture
male heavy smokers = details: beta-carotene alone
[2] = test system: hippocampus and cerebellum of rats; details: RF-EMF 900 MHz 60 min/day for 21 days
[3] = test system: rats exposed to 900 MHz radiation; details: compared to EMF irradiated animals not receiving luteolin
hippocampus of rats = details: prenatal exposure to 900 MHz EMF radiation
kidney of rats = details: 900 MHz
N9 microglia cells = N9 microglia cells in culture
[4] = test system: workers chronically exposed to ELF-EMF radiation from high voltage electricity
[5] = test system: Human embryonic kidney cells (HEK293); details: HEK293, 2.4 GHz for 1 h, treatment before exposure
heart disease = details: humans
[6] = test system: patients with Alzheimer's disease
porcine blood platelets = details: 1 KHz, 220 V/m, 30 and 60 minutes
rats = details: EMF radiation emitted from mobile phones, supplementation

Molecule: COc1cc(/C=C/C(=O)CC(=O)/C=C/c2ccc(O)c(OC)c2)ccc1O [Curcumin]
EMF-induced elevation of pro-inflammatory cytokines [1]: prevented
EMF-induced reduced phagocytic activity [1]: prevented

risk of lung cancer (male heavy smokers): increased the risk of lung cancer
Molecule: CC1=C(/C=C/C(C)=C/C=C/C(C)=C/C=C/C=C(C)/C=C/C=C(C)/C=C/C2=C(C)CCCC2(C)C)C(C)(C)CCC1 [beta-carotene]

Molecule: Nc1nc2ncc(CNc3ccc(C(=O)N[C@@H](CCC(=O)O)C(=O)O)cc3)nc2c(=O)[nH]1 [folic acid]
reduction in pyramidal and granular cells in hippocampus and dentate gyres and Purkinje cell number in cerebellum [2]: decreased these changes

Molecule: O=c1cc(-c2ccc(O)c(O)c2)oc2cc(O)cc(O)c12 [luteolin]
numbers of Leydig cells, primary spermatocytes, and spermatids [3]: enhanced the number of these cells

Molecule: COc1ccc2[nH]cc(CCNC(C)=O)c2c1 [melatonin]
EMF radiation-induced neuronal damage in the hippocampus (hippocampus of rats): prevented EMF radiation-induced neuronal damage
EMF radiation induced oxidative damage in the kidney (kidney of rats): prevented

Molecule: CC(C)(C)c1nc2c3cc[nH]c(=O)c3c3cc(F)ccc3c2[nH]1 [pyridone 6]
EMF radiation induced inflammatory responses (N9 microglia cells): suppressed EMF radiation induced inflammatory responses

Molecule: Oc1ccc(C=Cc2cc(O)cc(O)c2)cc1 [resveratrol]
increased oxidative stress (damage) from ELF-EMF radiation [4]: reduced this damage

Molecule: [Se] [selenium]
EMF radiation-induced biochemical changes (MDA, SOD, glutathione peroxidase, apoptosis, caspase-3, Bcl2) [5]: reduced such EMF radiation-induced biochemical changes

Molecule: Vitamin E
effect in heart disease on primary and most secondary outcomes (heart disease): ineffective
rate of decline in cognitive function ([6]; early phase of Alzheimer's disease): reduced the rate of decline in cognitive function
treatment effect in Alzheimer's disease ([6]; patients with Alzheimer's disease): ineffective

Molecule: omega-3-fatty acids
EMF radiation-induced neuronal damage in the hippocampus (hippocampus of rats): prevented EMF radiation-induced neuronal damage

Molecule: vitamin A
EMF-induced increase in malondialdehyde (MDA) levels (porcine blood platelets): significantly attenuated such changes; also recorded: significantly attenuated this damage

Molecule: vitamin D
EMF radiation impaired immune function (rats): mitigated
